Laboratory results taken from US7482008B1, “Human T cell reactive feline protein (TRFP) isolated from house dust and uses therefor” (Merck Patent GmbH, priority 1989, dated 2009).

Experiments:
[1] = tested on: human IgE (cat allergic patient plasma); assay: Direct binding ELISA of human IgE to coated antigen; settings: direct binding ELISA or similar protocol
Experimental: The basic format of these ELISA assays was a direct binding assay wherein the antigen was coated onto the wells of a 96 well microtitre dish and then antibodies in solution are added and assayed for the binding capacity. The protocol for these assays was as follows:
The peptides were conjugated to HSA (human serum albumin) by two different methods based on their chemical structure. […] Both conjugates were filter purified and dialyzed against PBS. In the ELISA assay, the unbound coating antigens were removed and the wells were blocked with 0.5% gelatin in PBS, 200 μl/well for 2 hours at room temperature. The antibody solution was a pool of plasma samples from 20 patients that were skin test positive for commercial cat extract which was serially diluted with PBS-Tween 20 (PBS with 0.05% nonionic detergent Tween-Sigma, St. Louis Mo.) and 100 μl/well was added and incubated overnight at 4° C. (plasma dilutions are tested in duplicate). […] The second antibody (biotinylated goat anti-Human IgE, 1:1000 Kirkegaard & Perry Laboratories Inc. Gaithersburg, Md.), was added at 100 μl/well for one hour at room temperature. This solution was removed and streptavidin-HRPO, 1:1000, (Southern Biotechnology Associates, Inc., Birmingham, Ala.) was then added at 100 μl/well for one hour at room temperature (all wells were washed three times with PBS-Tween between each incubation step). TMB Membrane Peroxidase Substrate system (Kirkegaard & Perry Laboratories) was freshly mixed, and added at 100 μl/well. The color was allowed to develop for 2-5 minutes. The reaction was stopped by the addition of […] of 1 M phosphoric acid. Plates are read on a Microplate EL 310 Autoreader (Biotek Instruments, Winooski, Vt.) with a 450 nm filter. The absorbance levels of duplicate wells were averaged.

[2] = tested on: T cells from cat allergic patients; assay: T cell proliferation of TRFP-primed T cells from cat allergic patients (tritiated thymidine), Example 5 Part A; format: cell-based, human; settings: Table 3, chain #2 TRFP peptides
Experimental: Peripheral blood mononuclear cells (PBMC) were purified from 60 ml of heparinized blood from cat allergic patients. PBMC were subsequently treated as described below, although in individual cases, the length of time of cultivation with IL-2 and/or IL-4 and the specific peptides used for stimulation varied.
10 ml of PBMC from patient 131 at 10^6 /ml were cultured at 37° C. for 7 days in the presence of 5 μg purified TRFP/ml RPMI-1640 supplemented with 5% pooled human AB serum. Viable cells were purified by Ficoll-Hypaque centrifugation and cultured for three weeks at 5 units recombinant human IL-2/ml and 5 units recombinant human IL-4/ml. The resting T cells were then restimulated (secondary) with 5 μg TRFP at 2×10^5/ml in the presence of irradiated (3500 Rads) autologous PBMC at a concentration of 5×10^5/ml for three days, purified by Ficoll-Hypaque centrifugation and grown in 5 units IL-2 and 5 units IL-4/ml for two weeks. For assay, 2×10^4 resting secondary T cells were restimulated (tertiary) in the presence of 5×10^4 irradiated (3500 Rads) autologous PBMC or 2×10^4 transformed B cells (20,000 Rads) with various concentrations of allergens or their fragments in a volume of 200 microliters in a 96-well round bottom assay plates for 3 days. Each well then received 1 μCurie tritiated (methyl) thymidine for 16 hours. The counts incorporated were collected onto glass fiber filters and processed for liquid scintillation counting.
Antigens used: T cell reactive feline protein (TRFP), Hollister-Stier cat epithelium skin test reagent (CST), IPC ragweed pollen extract (pollen), and synthetic peptides derived from TRFP protein sequence (See FIGS. 6 and 7). Positive T cell proliferation is for these experiments was considered to be greater than 2.5 times the media control (T cells and antigen presenting cells alone).
Alternatively, PBMC were treated as follows: The primary stimulated cells were cultured in IL-2/IL-4 for two weeks. The resting T cells derived from this culture were tested in a secondary assay with some, but not all, of the above allergens. […] This type of epitope analysis has allowed the definition of T cell epitopes present in TRFP.

[3] = tested on: PBMC from cat-allergic patients; assay: IL-2, IFN-gamma and IL-4 measurements by PCR in primary 36 hour PBMC culture; format: cell-based, human; settings: Patient 409 primary 36 hour culture
Experimental: Peripheral blood mononuclear cells (PBMC) were purified from cat-allergic patients as described in Example 5. Five×10^6 PBMC were cultured at 2×10^6/ml for 36 hours in the presence of medium only, 20 μg purified TRFP/ml or 50 μg peptide/ml. The cells were then washed two times with phosphate buffered saline (PBS, pH 7.2) and lysed with 2 ml […] guanidinium isothiocyanate, 0.5% Sarkosyl, 5 mM sodium citrate, 0.1 M 2-mercaptoethanol, pH 7.0. The lysate was then forced through a 26 gauge needle to shear genomic DNA, and was layered onto a 2 ml cushion of 5.7 M CsCl, 0.01 M EDTA, pH 7.5 in diethylpyrocarbonate (DEPC)-treated water. The lysate was centrifuged at 35,000 RPM in a Beckman SW41 rotor for 18 hours at 20° C. The RNA pellet was resuspended in 0.4 ml TE (10 mM Tris, 1 mM EDTA), pH 7.5, 0.1% SDS, and then extracted three times with 0.5 ml phenol/0.2 ml chloroform. The RNA was then precipitated on dry ice with 2.5 volumes ice-cold ethanol, 1/10 volume 3 M sodium acetate, pH 5.2 in DEPC-treated water, rinsed once with 70% ethanol in DEPC-treated water, and dried. The RNA pellet was resuspended in 2 μl TE., pH 7.5 in DEPC-treated water.
Total cellular RNA was converted to cDNA using the Superscript kit (BRL, Bethesda, Md.). Two μl of RNA were added to one μl oligo (dT)12-18 (500 μg/ml) and 9 μl water. The sample was heated to 70° C. for 10 minutes and ice quenched. Four μl 5× buffer were added to the sample along with 2 μl 0.1 M DTT and 1 μl dNTP mix (10 mM each, dATP, dCTP, dGTP, dTTP). One μl reverse transcriptase (200U) was added and the reaction was carried out for one hour at 42° C. The reaction was terminated by incubation of the sample at 90° C. for five minutes and stored at −80° C.
Ten-fold serial dilutions of T cell cDNA in 10 mM TRIS, pH 7.5 were amplified using the standard kit and protocol recommended by Perkin Elmer-Cetus (Redwood City, Calif.). Each sample received 26.65 μl water, 5 μl ×PCR buffer, 8 μl of dNTP mix (1.25 mM each of dATP, dCTP, dGTP and dTTP), 0.1 μl alpha 32P-dCTP (3000 Ci/mmol), 0.25 μl AmpliTaq, 5 μl cDNA and 5 μl cytokine-specific 5′ and 3′ primers (20 micromolar). The primers used for most cytokines and the beta-actin control were purchased from Clontech (Redwood City, Calif.). The human IL-4 primers were purchased from Research Genetics (Huntsville, Ala.) and had the following sequences: 5′ hIL-4 primer (SEQ. ID. NO: 58):
The PCR products were extracted once with 25 μl chloroform and 25 μl of each sample were then electrophoresed on an 8% polyacrylamide gel at 250 V. The gel was dried and exposed to pre-flashed x-ray film. Several exposures of each gel were then scanned using a Shimadzu flying spot laser densitometer. Values on the linear portion of the titrations were then compared to the medium control values to obtain a stimulation index for each sample. Primers for beta-actin were included as a control for general cDNA levels in each sample. Where the medium control values are not detectable, the lowest measurable response was set at 1.00. In other experiments, levels of cytokine cDNA can be compared directly with previously amplified cytokine specific cDNAs as standards. Thus, absolute levels of particular cytokine cDNAs can be compared from one sample to another and from one experiment to another. In this experiment, IL-2, IL-4 and IFN-gamma levels were measured. As shown, in this particular cat-allergic patient, peptides such as Fel 18 generate more IL-4 than certain other TRFP-derived peptides (Fel 14 and Fel 17). This analysis will be expanded to studies of other cytokines involved in the generation of allergic responses, such as IL-5, IL-8, IL-9, TGF-beta. Samples of cDNA from each treatment can also be saved for later analysis once additional cytokines are identified and sequenced. Peptides generating a spectrum of cytokines favorable for the generation of allergic responses can be avoided for therapeutic use in the treatment of cat allergy. […]

[4] = tested on: T cells from cat-allergic patients; assay: Secondary proliferation assay of T cells primed with TRFP, peptide YXZ or peptide YZX; format: cell-based, human
Experimental: The human cat allergic T cell response to peptides produced as above was examined. […] Peptide YZX was cleaved with thrombin as described in Example 25. Viable cells were then purified by Ficoll-Hypaque centrifugation and cultured for 2 additional weeks in RPMI-1640/5% AB serum containing 5 units recombinant human IL-2/ml and 5 units recombinant human IL-4/ml. The resting T cells were then tested in a secondary proliferation assay using a 96 well microtiter plate to assess T cell responses to various TRFP proteins or peptides (TRFP antigens). For assay, 2×10^4 resting T cells were cultured for 3 days at 37° C. in the presence of 2×10^4 autologous Epstein-Barr virus transformed B cells (25,000 Rads) as antigen presenting cells with various concentrations of antigen in 200 μl per well. Each well then received 1 μCi tritiated thymidine for 16 hours. The counts incorporated were collected onto glass fiber filters and processed for liquid scintillation counting. The stimulation indices for responses to each antigen were then calculated as the maximum CPM in response to antigen divided by the medium control CPM. A stimulation index of 2.5 was considered to be a positive T cell response. A summary of the results of 3 such experiments (patients 522, 519, and 386 is shown in FIG. 35a, FIG. 35b and FIG. 35c). As compared to the experiments shown in FIGS. 35a and 35b in the experiment shown in […], Fel-1.4 (chain 1, amino acid residues 6-17) was substituted for Fel-1.2 (chain 1, amino acid residues 1-17) and Fel-33.3 (chain 2, amino acid residues 26-40) was substituted for Fel-18 (chain 2, amino acid residues 23-48) in order to more closely resemble the constituent amino acids of peptides X and Z. In addition, in this experiment one peptide derived from the Y-Z junction of peptide YZX (amino acid residues 50-55 from chain 1 of TRFP and amino acid residues 14-19 from chain 2 of TRFP) and one peptide derived from the Z-X junction of peptide YZX (amino acid residues 34-39 of chain 2 of TRFP and amino acid residues 7-12 of chain 1 of TRFP) were synthesized and tested. These junction peptides were produced in order to determine whether these areas of peptide YZX produce a non-native epitope when formed in the peptide.

human IgE = assay: SDS/PAGE Western immunoblot of human IgE binding, plasma from patient #417; settings: patient #417 plasma
Experimental: Western immunoblot analysis of the peptides produced in above was performed. The concentration of all protein samples (e.g., TRFP, recombinant chain 1 of TRFP, recombinant chain 2 of TRFP, peptide XYZ, peptide XZY, peptide YXZ, peptide YZX, peptide ZXY and peptide ZYX) for gel electrophoresis was determined by the BCA method (Pierce Co.). All protein samples were loaded on the gel at 5 μg/lane except TRFP at 10 μg/lane. Protein separation was carried out on a 15% acrylamide gel, and transfer was performed by electroblotting at 1.5 Amps for 1.5 hours onto nitrocellulose paper (Schleicher and Schuell, 0.1 microns) in a Hoeffer apparatus according to the protocol of Towbin, H., T. Stachlin, and J. Gordon, PNAS 76:4350 (1979). Proteins were rinsed in blot solution (25 mM Tris-HCl 7.5, 0.171 M NaCl and 0.5 ml/liter Tween 20). The blot was then blocked for one hour in blocking solution (1% milk in blot solution). Plasma from patient #417, used as a primary antibody source, was diluted in blocking solution to 10% and preabsorbed for 1.5 hours with unused nitrocellulose (2 cm×15 cm). The prepared human plasma was then incubated overnight on an orbital shaker with the protein blot section of interest. Following the first antibody incubation the blot section was washed three times, each wash involved a fifteen minute incubation in blot solution. The second antibody, specific for human IgE (biotinylated goat anti-human IgE, KPL Inc.), was diluted 1:2500 in blot solution and the incubation proceeded for two hours. Excess second antibody was subsequently removed by three 15 minute incubations with blot solution. ^125I Iodinated streptavidin (Amersham) was diluted 1:2500 in blot solution and incubated with blots for 1 hour, at 2 μCi in a 50 ml incubation volume. Blot sections were then washed with blot solution until the detectable radioactivity in the waste solution decreased to background levels. The blot section was then wrapped in saran wrap and exposed to film overnight with a cronex intensifying screen at −80° C.

## Fel 8-1: TRFP chain 1 amino acids 5-33 (AVKRDVDLFLTGTPDEYVEQVAQYKALPV; UniProt P30438 27-55, looked up, fragment)
[1]
  specific IgE binding: None of these peptides showed IgE binding

## Fel 31-1: TRFP chain 2 amino acids 14-40 (VTQALGVKMAETCPIFYDVFFAVANGN)
[1]
  specific IgE binding: None of these peptides showed IgE binding

## LLLDLSLTKVNATEPERTAMKKIQDC [Fel 18, TRFP chain 2 amino acids 23-48]
[2]
  PI: 466
  SI: 6.3
[3]
  RATIO IFN/IL-4: 0.5
  RATIO IL-2/IL-4: 0.4
[3]; PCR, vs medium control
  STIMULATION INDEX IFN-γ: 5.6
  STIMULATION INDEX IL-2: 4.6
  STIMULATION INDEX IL-4: 12.0
[4]; patient 522, T cells primed with YXZ
  T cell response: respond at a similar level or better

B1: peptide YXZ: recombinant peptide: peptide Y, peptide X and peptide Z linked in this order (protein)
chain: MGHHHHHHEFKALPVVLENARILKNCVDAKMTEEDKEKRDVDLFLTGTPDEYVEQVAQYKALPVFFAVANGNELLLDLSLTKVNATEPER
Human IgE
  IgE binding, Western immunoblot: negative for IgE binding
[4]; patient 519, cells primed with peptide YXZ
  T cell response: positive responses
[4]; patient 519, native TRFP-primed T cells
  T cell response: respond
[4]; patient 522, T cells primed with native TRFP, SI 2.5 positive
  T cell response: positively respond
